Activity calls are given as the source filed them. The rule behind the calls is not given here.

Data set [1] is described as follows: Covalent binding affinity to [15N]-labelled cNTnC (1 to 90 residues)- cTnI (136 to 163 residues) C35S mutant chimeric protein (unknown origin) expressed in Escherichia coli BL21 (DE3) assessed as dissociation constant by 2D 1H, 15N HSQC NMR spectroscopy analysis. Details: species or system Homo sapiens.
Data set [2] is filed under the species Homo sapiens. Put plainly: Binding affinity to BME-bound [15N]-labelled cNTnC (1 to 90 residues)- cTnI (136 to 163 residues) C35S mutant chimeric protein (unknown origin) expressed in Escherichia coli BL21 (DE3) up to 60 uM in the presence of DTT by 2D 1H, 15N HSQC NMR spectroscopy analysis. Particulars: dose microM <=60.
The nature of data set [3]: Binding affinity to calcium saturated His-tagged cNTnC (1 to 90 residues)- cTnI (136 to 163 residues) A-Cys chimeric protein harboring C35S/C84S double mutant (unknown origin) assessed as dissociation constant by flourescence spectroscopy analysis. Details: species or system Homo sapiens.
Data set [4] is described as follows: Drug degradation assessed as new spectra with MW of 404 Da formation at 40 uM measured after incubation of 8-month old compound with [15N]-labelled cNTnC (1 to 90 residues)-cTnI (136 to 163 residues) C35S mutant chimeric protein (unknown origin) by 2D 1H, 15N HSQC NMR spectroscopy analysis. The format is ADME.
The species entered for data set [5] is Bos taurus. Description: Inhibition of actomyosin ATPase activity in bovine cardiac myofibrils assessed as reduction in inorganic phosphate release using ATP as substrate preincubated for 30 mins in presence of pCa 6 followed by substrate addition by malachite green based assay.
Data set [6] is described as follows: Stability of the compound in NMR buffer at 50 uM in the absence of DTT measured after 40 hrs at 30 degC by 1D H-NMR analysis. In kind it is physicochemical.
A short description of data set [7]: Aqueous solubility of the compound by 1D H-NMR spectroscopy analysis. In kind it is physicochemical.
Data set [8] is filed under the species Bos taurus. Put plainly: Inhibition of actomyosin ATPase activity in bovine cardiac myofibrils assessed as reduction in inorganic phosphate release using ATP as substrate preincubated for 30 mins in presence of pCa 9 followed by substrate addition by malachite green based assay.
Data set [9] can be described thus: Inhibition of actomyosin ATPase activity in bovine cardiac myofibrils assessed as reduction in inorganic phosphate release using ATP as substrate preincubated for 30 mins in presence of pCa 4.5 followed by substrate addition by malachite green based assay. Details: species or system Bos taurus.
The species entered for data set [10] is Homo sapiens. Put plainly: Binding affinity to BME-bound [15N]-labelled cNTnC (1 to 90 residues)- cTnI (136 to 163 residues) C35S mutant chimeric protein (unknown origin) expressed in Escherichia coli BL21 (DE3) up to 60 uM by 2D 1H, 15N HSQC NMR spectroscopy analysis. The settings on record: dose microM <=60.
The nature of data set [11]: Reactivity with dithiothreitol in NMR buffer at 50 uM measured up to 24 hrs by 1D H-NMR analysis. The settings on record: time hrs <=24.
A short description of data set [12]: Drug degradation assessed as new spectra with MW of 202 Da formation at 40 uM measured after incubation of 8-month old compound with [15N]-labelled cNTnC (1 to 90 residues)-cTnI (136 to 163 residues) C35S mutant chimeric protein (unknown origin) by 2D 1H, 15N HSQC NMR spectroscopy analysis. The format is ADME.
Data set [13] is described as follows: Binding affinity to calcium saturated His tagged cNTnC (1 to 90 residues)- cTnI (136 to 163 residues) C35S mutant chimeric protein (unknown origin) assessed as dissociation constant by flourescence spectroscopy analysis. On the set-up: species or system Homo sapiens.
A short description of data set [14]: Aqueous solubility of the compound by fluorescence spectroscopy analysis. In kind it is physicochemical.
The species named for data set [15] is Homo sapiens. Put plainly: Binding affinity to [15N]-labelled cNTnC (1 to 90 residues)- cTnI (136 to 163 residues) A-Cys chimeric protein harboring C35S/C84S double mutant (unknown origin) assessed as NMR fast exchange by 2D 1H, 15N HSQC NMR spectroscopy analysis.

On to `N#C/C(=C\c1ccc(N(c2ccccc2)c2ccccc2)cc1)C(=O)O`, for which the Kd is less than 500 nM in data set [1], 45 nM in data set [3] and 56 nM in data set [13]. The result (in the data set listed under Homo sapiens [2]; in data set [11]) was Active. Further, the Drug degradation result in data set [4] and in [12] was “Active” in each case. Besides, the inhibition entry in the data set listed under Bos taurus [5] was “Active”. For the same molecule, the Stability result in data set [6] is “Stable”. Further, the solubility in data set [7] and in data set [14] was less than 50 µM in each case. For the same molecule, the inhibition entry in the data set listed under Bos taurus [8] is “inactive”. For the same molecule, the IC50 in data set [9] was determined as 11 nM. In addition, the outcome in the data set listed under Homo sapiens [10] and in the data set listed under Homo sapiens [15] was inactive.

The values are drawn from ChEMBL document CHEMBL4840337, “A Potent Fluorescent Reversible-Covalent Inhibitor of Cardiac Muscle Contraction” (ACS Med Chem Lett, 2021).
